Patent publication US6620828B2, “Thiazole compounds and pharmaceutical compositions for inhibiting protein kinases and methods for their use” (Agouron Pharmaceuticals, Inc., priority 1999, dated 2003)
Where two headings read alike, the source gives them in different places. Each block holds one compound with its values, some of them ahead of it.

How the values were obtained:
[1] = molecular target: T1, CDK4/Cyclin D3 complex (Homo sapiens, UniProt P11802); assay: CDK4/Cyclin D assay; assay type: biochemical; conditions: Table 2; for inhibition at 100 µM: at 100 (printed 100 or 100 μM)
T1 construct: made in house; host or cells: insect cells co-infected with baculovirus vectors
T1 sequence (P11802 whole entry): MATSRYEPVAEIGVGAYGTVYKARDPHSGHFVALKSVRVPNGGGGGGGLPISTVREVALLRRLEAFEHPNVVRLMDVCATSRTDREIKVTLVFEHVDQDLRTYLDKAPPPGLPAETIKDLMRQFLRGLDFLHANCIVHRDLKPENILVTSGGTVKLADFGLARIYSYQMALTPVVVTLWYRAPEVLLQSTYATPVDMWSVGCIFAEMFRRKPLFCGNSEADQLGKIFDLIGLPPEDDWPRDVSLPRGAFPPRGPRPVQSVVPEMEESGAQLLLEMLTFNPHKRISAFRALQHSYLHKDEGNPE
T1 sequence (P30281 whole entry partner): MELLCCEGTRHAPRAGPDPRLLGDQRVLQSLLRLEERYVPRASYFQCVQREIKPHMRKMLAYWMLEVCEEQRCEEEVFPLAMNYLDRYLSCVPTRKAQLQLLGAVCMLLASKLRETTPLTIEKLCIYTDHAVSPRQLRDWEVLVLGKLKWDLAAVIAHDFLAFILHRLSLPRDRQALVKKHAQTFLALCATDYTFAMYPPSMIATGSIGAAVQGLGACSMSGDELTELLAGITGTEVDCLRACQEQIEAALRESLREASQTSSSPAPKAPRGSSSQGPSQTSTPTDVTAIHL
Method in brief: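 Insect-cell-expressed CDK4/cyclin D3 (50 nM) phosphorylating His-tagged Rb fragment (residues 386-928) with 25 μM [^32P]ATP in HEPES pH 7.4, MgCl2, 2% DMSO; 20 min at 30 °C, EDTA stop. Filter-captured 32P by phosphorimager; apparent Ki from competitive or tight-binding inhibition fits.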

[2] = molecular target: T2, phosphorylated VEGF-R2Δ50 (Homo sapiens, UniProt P35968, DEL940-989/E990V); assay: VEGF-R2 ELISA assay; assay type: biochemical; conditions: for FLVK-P % inhibition @ 300*: at 300 (head μM); for Ki: * determined with ELISA assay, read-out: FLVK-P Ki
T2 construct: VEGF-R2Δ50 contains residues 806-939 and 990-1171; made in house; host or cells: baculovirus/insect cells
T2 sequence (P35968 with tags, fused parts or gaps DEL940-989/E990V limits assumed): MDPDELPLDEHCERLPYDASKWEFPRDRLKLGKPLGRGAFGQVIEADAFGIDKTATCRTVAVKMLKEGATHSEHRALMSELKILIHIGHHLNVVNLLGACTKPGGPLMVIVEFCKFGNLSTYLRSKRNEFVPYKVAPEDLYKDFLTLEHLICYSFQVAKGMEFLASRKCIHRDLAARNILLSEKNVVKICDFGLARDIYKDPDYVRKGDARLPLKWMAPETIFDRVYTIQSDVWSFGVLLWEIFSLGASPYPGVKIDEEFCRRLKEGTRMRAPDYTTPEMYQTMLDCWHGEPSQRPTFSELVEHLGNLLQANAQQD
From the text: VEGF-R2 Construct for Assay: This construct determines the ability of a test compound to inhibit tyrosine kinase activity. A construct (VEGF-R2Δ50) of the cytosolic domain of human vascular endothelial growth factor receptor 2 (VEGF-R2) lacking the 50 central residues of the 68 residues of the kinase insert domain was expressed in a baculovirus/insect cell system. Of the 1356 residues of full-length VEGF-R2, VEGF-R2Δ50 contains residues 806-939 and 990-1171, and also one point mutation (E990V) within the kinase insert domain relative to wild-type VEGF-R2. Autophosphorylation of the purified construct was performed by incubation of the enzyme at a concentration of 4 μM in the presence of 3 mM ATP and 40 mM MgCl2 in 100 mM Hepes, pH 7.5, containing 5% glycerol and 5 mM DTT, at 4° C. for 2 h. […] See Parast et al., Biochemistry, 37, 16788-16801 (1998).
Formation of phosphogastrin was monitored using biotinylated gastrin peptide (1-17) as substrate. Biotinylated phosphogastrin was immobilized using streptavidin coated 96-well microtiter plates followed by detection using anti-phosphotyrosine-antibody conjugated to horseradish peroxidase. The activity of horseradish peroxidase was monitored using 2,2′-azino-di-[3-ethylbenzathiazoline sulfonate(6)]diammonium salt (ABTS). Typical assay solutions contained: 2 μM biotinylated gastrin peptide; 5 mM DTT; 20 μM ATP; 26 mM MgCl2; and 2 mM MnCl2 in 200 mM Hepes, pH 7.5. The assay was initiated with 0.8 nM of phosphorylated VEGF-R2Δ50. Horseradish peroxidase activity was assayed using ABTS, 10 mM. The horseradish peroxidase reaction was quenched by addition of acid (H2SO4), followed by absorbance reading at 405 nm. Ki values were determined by measuring enzyme activity in the presence of varying concentrations of test compounds. The data were analyzed using Enzyme Kinetic and Kaleidagraph software.

[3] = molecular target: CDK2/Cyclin A complex (Homo sapiens, UniProt P24941); assay: CDK2/Cyclin A assay; assay type: biochemical; conditions: Table 2
Method in brief: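 Radiometric assay: 150 nM CDK2/cyclin A (insect-cell CDK2, truncated cyclin A) phosphorylates His-tagged Rb fragment (residues 386-928) with 25 μM ATP plus [32P]ATP, pH 7.4 HEPES, 2% DMSO, 30 °C for 20 min. Filter-captured product counted by phosphorimager; apparent Ki from competitive or tight-binding inhibition fits.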

[4] = system: lung cancer cells (line MV522); assay: Cancer cell proliferation (MV522) assay; assay type: cell-based; conditions: MV522, Table 1
[5] = system: human umbilical vein endothelial cells (HUVEC); assay: HUVEC proliferation assay; assay type: cell-based; conditions: Homo sapiens, HUVEC, Table 1
Method in brief: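 Readout was MTT dye reduction (A595) after 72 h of stimulation with VEGF at 6 ng/ml final. Compound, in 0.1% DMSO final, was added 1 h before VEGF to HUVEC starved 24 h in 1% FBS. % inhibition was scaled between VEGF-alone and unstimulated wells; IC50 was fitted from triplicate dose curves.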

[6] = molecular target: T3, unphosphorylated VEGF-R2Δ50 (FLVK) (Homo sapiens, UniProt P35968, DEL940-989/E990V); assay: VEGF-R2 coupled spectrophotometric assay, unphosphorylated enzyme (FLVK); assay type: biochemical; conditions: Table 1
T3 construct: VEGF-R2Δ50 contains residues 806-939 and 990-1171; made in house; host or cells: baculovirus/insect cells
T3 sequence (P35968 with tags, fused parts or gaps DEL940-989/E990V limits assumed): as above
Method in brief: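 Unphosphorylated VEGF-R2Δ50 (5 to 40 nM) with 20 mM poly(E4Y1), 3 mM ATP, 60 mM MgCl2, 2 mM MnCl2 in 200 mM Hepes pH 7.5. ADP production coupled via PK/LDH to NADH oxidation, read at 340 nm. Ki from activity at varying compound concentrations.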

SMILES: COc1cc(Nc2nc(N)c(-c3nc(-c4cccc(NC(=O)Oc5ccccc5)c4)cs3)s2)cc(OC)c1OC [D(4), {3-[4′-Amino-2′-(3,4,5-trimethoxy-phenylamino)-[2,5′]bithiazolyl-4-yl]-phenyl}-carbamic acid phenyl ester]
IC50 [4]: > 10 µM | Ki ([2]; Table 1): 0.0076 µM | IC50 [5]: 0.24 µM

SMILES: Nc1nc(Nc2ccc3c(c2)OCCO3)sc1-c1ccccn1 [G(3), N^2-(2,3-Dihydro-benzo[1,4]dioxin-6-yl)-5-pyridin-2-yl-thiazole-2,4-diamine]
Ki [1]: 6.2 µM | FLVK-P % inhibition @ 20* ([2]; Table 2, ELISA assay, at 20 (head μM)): 13% @

SMILES: COc1cc(Nc2nc(N)c(-c3nc(-c4cccc(NC(=O)c5ncc(C)s5)c4)no3)s2)cc(OC)c1OC [D(51)]
Ki [6]: 0.00062 µM | IC50 [4]: > 10 µM | Ki ([2]; Table 1): 0.032 µM | IC50 [5]: 0.04 µM

SMILES: COc1cc(Nc2nc(N)c(-c3nc(-c4cccc(NC(=O)c5cc6ccccc6o5)c4)cs3)s2)cc(OC)c1OC [D(21), Benzofuran-2-carboxylic acid {3-[4′-amino-2′-(3,4,5-trimethoxy-phenylamino)-[2,5′]bithiazolyl-4-yl]-phenyl}-amide]
IC50 [4]: > 10 µM | Ki ([2]; Table 1): 0.06 µM | IC50 [5]: 0.2 µM

SMILES: Nc1nc(Nc2ccc(S(N)(=O)=O)cc2)sc1-c1nc(O)cs1 [H(1), 4-(4′-Amino-4-hydroxy-[2,5′]bithiazolyl-2′-ylamino)-benzenesulfonamide]
Ki [3]: 0.65 µM | Ki [1]: 3.8 µM | Ki ([2]; Table 2): 3.6 µM

SMILES: COc1ccc(Nc2nc(N)c(-c3ccccn3)s2)cc1OC [G(4), N^2-(3,4-Dimethoxy-phenyl)-5-pyridin-2-yl-thiazole-2,4-diamine]
Ki [1]: 11.4 µM | FLVK-P % inhibition @ 300* ([2]; Table 2, ELISA assay): 42% @

SMILES: Nc1nc(Nc2ccc(S(N)(=O)=O)cc2)sc1-c1nc(-c2ccc(O)cc2)cs1 [A(8), 4-[4′-Amino-4-(4-hydroxy-phenyl)-[2,5′]bithiazolyl-2′-ylamino]-benzenesulfonamide]
Ki [3]: 0.8 µM | Ki [1]: 0.42 µM | Ki ([2]; Table 2): 0.058 µM

SMILES: Nc1nc(Nc2ccccc2)sc1-c1ccccn1 [G(2), N^2-Phenyl-5-pyridin-2-yl-thiazole-2,4-diamine]
Ki [1]: 5.7 µM | FLVK-P % inhibition @ 100* ([2]; Table 2, ELISA assay, at 100 (head μM)): 18% @

SMILES: COc1cc(Nc2nc(N)c(-c3ccccn3)s2)cc(OC)c1OC [G(1), 5-Pyridin-2-yl-N^2-(3,4,5-trimethoxy-phenyl)-thiazole-2,4-diamine]
Ki [1]: 50 µM | Ki ([2]; Table 2): 57 µM

Now from value to compound:

inhibition at 100 µM [1]: < 0% | FLVK-P % inhibition @ 300* ([2]; Table 2, ELISA assay): 40% @
SMILES: COc1cc(Nc2nc(N)c(C3=NC(CC(C)C)CO3)s2)cc(OC)c1OC (centres unmarked) [I(3), S-5-(4-Isobutyl-4,5-dihydro-oxazol-2-yl)-N^2-(3,4,5-trimethoxyl-phenyl)-thiazole-2,4-diamine]

Ki [3]: 8.8 µM | Ki [1]: 1.7 µM | Ki ([2]; Table 2): 6.1 µM
SMILES: CN(C)c1ccc(Nc2nc(N)c(-c3nc(O)c(-c4ccccc4O)s3)s2)cc1 [H(3), 4′-Amino-2′-(4-dimethylamino-phenylamino)-5-(2-hydroxy-phenyl)-[2,5′]bithiazoly-4-ol]

inhibition at 100 µM [1]: 29% | Ki ([2]; Table 2): 53 µM
SMILES: CN(C)c1ccc(Nc2nc(N)c(-c3nn[nH]n3)s2)cc1 [J(2), N-(4-Dimethylamino-phenyl)-5-(2H-tetrazol-5-yl)-thiazole-2,4-diamine]

inhibition at 100 µM [1]: < 0% | Ki ([2]; Table 2): 64 µM
SMILES: COc1cc(Nc2nc(N)c(-c3nn[nH]n3)s2)cc(OC)c1OC [J(1), 5-(2H-Tetrazol-5-yl-)-N-(3,4,5-trimethoxyl)-thiazole-2,4-diamine]

inhibition at 100 µM [1]: 47% | Ki ([2]; Table 2): 0.77 µM
SMILES: Nc1nc(Nc2ccc(S(N)(=O)=O)cc2)sc1C1=NC(c2ccccc2)CO1 (centres unmarked) [I(5), S-4-[4-Amino-5-(4-phenyl-4,5-dihydro-oxazol-2-yl)-thiazol-2-ylamino]-benzenesulfonamide]
